Results: patent US10189854B2, “Substituted pyrimidine compounds” (Grünenthal GmbH, priority 2014, dated 2019)

molecular target: human PDE4B1 (Homo sapiens (Human), UniProt Q07343); experiment: TR-FRET assay using the LANCE Ultra cAMP kit to determine the activity of hPDE4B1; format: biochemical; settings: IC50 inhibition of PDE4B, mean
How it was run: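 Recombinant human PDE4B1 (Sf9-expressed, 0.96 U) incubated with compound and 500 nM cAMP in 50 mM Tris-HCl, 50 mM MgCl2, 5 mM DTT, pH 8.5, 30 min at room temperature. Residual cAMP read by TR-FRET (665/620 nm ratio) after IBMX stop. IC50 from ten-concentration curves as % inhibition of control.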

human PDE4B1, sequence (Q07343 whole entry): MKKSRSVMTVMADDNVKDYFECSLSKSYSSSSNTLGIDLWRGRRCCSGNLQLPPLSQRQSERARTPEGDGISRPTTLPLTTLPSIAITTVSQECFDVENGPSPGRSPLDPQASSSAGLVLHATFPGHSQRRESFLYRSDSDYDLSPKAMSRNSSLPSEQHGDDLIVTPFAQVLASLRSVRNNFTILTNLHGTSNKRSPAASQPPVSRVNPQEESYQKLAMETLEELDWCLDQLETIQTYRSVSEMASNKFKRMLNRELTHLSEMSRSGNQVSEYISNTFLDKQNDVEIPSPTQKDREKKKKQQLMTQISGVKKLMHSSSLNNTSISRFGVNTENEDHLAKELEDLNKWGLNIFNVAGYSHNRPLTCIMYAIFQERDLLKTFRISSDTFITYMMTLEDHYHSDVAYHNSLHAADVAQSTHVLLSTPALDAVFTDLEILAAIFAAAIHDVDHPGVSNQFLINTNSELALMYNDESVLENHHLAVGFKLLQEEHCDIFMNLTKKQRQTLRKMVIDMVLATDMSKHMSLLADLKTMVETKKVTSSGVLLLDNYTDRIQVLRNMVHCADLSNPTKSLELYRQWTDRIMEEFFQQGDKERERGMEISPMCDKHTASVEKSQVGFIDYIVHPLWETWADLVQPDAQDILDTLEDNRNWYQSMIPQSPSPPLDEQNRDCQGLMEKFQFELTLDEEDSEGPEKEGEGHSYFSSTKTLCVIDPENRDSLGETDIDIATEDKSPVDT

Row | SMILES | IC50 [µM]
1 | O=C(O)CN1CCN(C(=O)c2ccc3c(c2)N(c2ncc(-c4ccccc4F)cn2)CC32CC2)CC1 [Compound 237, 2-[4-[1-[5-(2-Fluorophenyl)-pyrimidin-2-yl]-spiro[1,2-dihydro-indole-3,1′-cyclopropane]-6-carbonyl]-pieprazin-1-yl]-acetic acid] | 0.1 to 1
2 | CC(O)c1ccnc(-c2cnc(N3CC4(CC4)c4ccc(C(=O)N5CCOCC5)cc43)nc2)c1 (stereo not shown) [Compound 293, [1-[5-[4-(1-Hydroxy-ethyl)-pyridin-2-yl]-pyrimidin-2-yl]-spiro[1,2-dihydro-indole-3,1′-cyclopropane]-6-yl]-morpholin-4-yl-methanone] | < 0.1
3 | CN(CCO)C(=O)c1ccc2c(c1)N(c1ncc(-c3ccc4c(c3)OCO4)cn1)CC21CC1 [Compound 219, 1-[5-(1,3-Benzodioxol-5-yl)-pyrimidin-2-yl]-N-(2-hydroxy-ethyl)-N-methyl-spiro[1,2-dihydro-indole-3,1′-cyclopropane]-6-carboxylic acid amide] | < 0.1
4 | NC(=O)CN1CCN(C(=O)c2ccc3c(c2)N(c2ncc(-c4ccccc4F)cn2)CC32CC2)CC1 [Compound 236, 2-[4-[1-[5-(2-Fluorophenyl)-pyrimidin-2-yl]-spiro[1,2-dihydro-indole-3,1′-cyclopropane]-6-carbonyl]-piperazin-1-yl]-acetamide] | 0.1 to 1
5 | O=C(c1ccc2c(c1)N(c1ncc(-c3cc(C4(O)CC4)ccn3)cn1)CC21CC1)N1CCOCC1 [Compound 351, [1-[5-[4-(1-Hydroxy-cyclopropyl)-pyridin-2-yl]-pyrimidin-2-yl]-spiro[1,2-dihydro-indole-3,1′-cyclopropane]-6-yl]-morpholin-4-yl-methanone] | < 0.1
6 | CN(CCO)C(=O)c1ccc2c(c1)N(c1ncc(-c3csc(CO)n3)cn1)CC21CC1 [Compound 326, N-(2-Hydroxy-ethyl)-1-[5-[2-(hydroxymethyl)-thiazol-4-yl]-pyrimidin-2-yl]-N-methyl-spiro[1,2-dihydro-indole-3,1′-cyclopropane]-6-carboxylic acid amide] | < 0.1
7 | C[S+]([O-])c1ccnc(-c2cnc(N3CC4(CC4)c4ccc(C(=O)N5CCOCC5)cc43)nc2)c1 (stereo not shown) [Compound 344, (1′-(5-(4-(methylsulfinyl)pyridin-2-yl)pyrimidin-2-yl)spiro[cyclopropane-1,3′-indolin]-6′-yl)(morpholino)methanone] | < 0.1
8 | CC(=O)Nc1ccnc(-c2cnc(N3CC4(CC4)c4ccc(C(=O)N5CCOCC5)cc43)nc2)c1 [Compound 346, N-[2-[2-[6-(Morpholine-4-carbonyl)-spiro[1,2-dihydro-indole-3,1′-cyclopropane]-1-yl]-pyrimidin-5-yl]-pyridin-4-yl]-acetamide] | < 0.1
9 | Cc1ccc(F)c(-c2cnc(N3CC4(CC4)c4ccc(C(=O)N(C)CCO)cc43)nc2)c1 [Compound 227, 1-[5-(2-Fluoro-5-methyl-phenyl)-pyrimidin-2-yl]-N-(2-hydroxy-ethyl)-N-methyl-spiro[1,2-dihydro-indole-3,1′-cyclopropane]-6-carboxylic acid amide] | < 0.1
10 | CCNc1ccnc(-c2cnc(N3CC4(CC4)c4ccc(C(=O)N5CCOCC5)cc43)nc2)c1 [Compound 292, [1-[5-(4-Ethylamino-pyridin-2-yl)-pyrimidin-2-yl]-spiro[1,2-dihydro-indole-3,1′-cyclopropane]-6-yl]-morpholin-4-yl-methanone] | < 0.1
11 | O=C(c1ccc2c(c1)N(c1ncc(-c3cc(C4CC4)ccn3)cn1)CC21CC1)N1CCC[C@@H](CO)C1 [Compound 336, [1-[5-(4-Cyclopropyl-pyridin-2-yl)-pyrimidin-2-yl]-spiro[1,2-dihydro-indole-3,1′-cyclopropane]-6-yl]-[(3R)-3-(hydroxymethyl)-piperidin-1-yl]-methanone] | < 0.1
12 | Cc1ccnc(-c2cnc(N3CC4(CC4)c4ccc(C(=O)N(C)CC(N)=O)cc43)nc2)c1 [Compound 300, N-(Carbamoyl-methyl)-N-methyl-1-[5-(4-methyl-pyridin-2-yl)-pyrimidin-2-yl]-spiro[1,2-dihydro-indole-3,1′-cyclopropane]-6-carboxylic acid amide] | < 0.1
13 | CN(CCO)C(=O)c1ccc2c(c1)N(c1ncc(-c3cc(CO)cs3)cn1)CC21CC1 [Compound 347, N-(2-Hydroxy-ethyl)-1-[5-[4-(hydroxymethyl)-thiophen-2-yl]-pyrimidin-2-yl]-N-methyl-spiro[1,2-dihydro-indole-3,1′-cyclopropane]-6-carboxylic acid amide] | < 0.1
14 | CN(CCO)C(=O)c1ccc2c(c1)N(c1ncc(-c3cc(NCC4CC4)ccn3)cn1)CC21CC1 [Compound 319, 1-[5-[4-(Cyclopropyl-methylamino)-pyridin-2-yl]-pyrimidin-2-yl]-N-(2-hydroxy-ethyl)-N-methyl-spiro[1,2-dihydro-indole-3,1′-cyclopropane]-6-carboxylic acid amide] | < 0.1
15 | O=C1CN(C(=O)c2ccc3c(c2)N(c2ncc(-c4cc(O)ccn4)cn2)CC32CC2)CCN1 [Compound 265, 4-[1-[5-(4-Hydroxy-pyridin-2-yl)-pyrimidin-2-yl]-spiro[1,2-dihydro-indole-3,1′-cyclopropane]-6-carbonyl]-piperazin-2-one] | < 0.1
16 | O=C(c1ccc2c(c1)N(c1ncc(-c3ccccc3F)cn1)CC21CC1)N1CC[C@@H](CO)C1 [Compound 311, [1-[5-(2-Fluorophenyl)-pyrimidin-2-yl]-spiro[1,2-dihydro-indole-3,1′-cyclopropane]-6-yl]-[(3R)-3-(hydroxymethyl)-pyrrolidin-1-yl]-methanone] | < 0.1

More lines, now with the values ahead:

Row | IC50 [µM] | SMILES
17 | < 0.1 | O=C(c1ccc2c(c1)N(c1ncc(-c3ccccc3F)cn1)CC21CC1)N1CC[C@H](CO)C1 [Compound 310, [1-[5-(2-Fluorophenyl)-pyrimidin-2-yl]-spiro[1,2-dihydro-indole-3,1′-cyclopropane]-6-yl]-[(3S)-3-(hydroxymethyl)-pyrrolidin-1-yl]-methanone]
18 | < 0.1 | C[S+]([O-])c1ccc(F)c(-c2cnc(N3CC4(CC4)c4ccc(C(=O)N5CCOCC5)cc43)nc2)c1 (stereo not shown) [Compound 355, [1-[5-[2-Fluoro-5-(methylsulfinyl)-phenyl]-pyrimidin-2-yl]-spiro[1,2-dihydro-indole-3,1′-cyclopropane]-6-yl]-morpholin-4-yl-methanone]
19 | < 0.1 | CCNc1ccc(F)c(-c2cnc(N3CC4(CC4)c4ccc(C(=O)N(C)CCO)cc43)nc2)c1 [Compound 343, 1-[5-(5-Ethylamino-2-fluoro-phenyl)-pyrimidin-2-yl]-N-(2-hydroxy-ethyl)-N-methyl-spiro[1,2-dihydro-indole-3,1′-cyclopropane]-6-carboxylic acid amide]
20 | < 0.1 | O=C(c1ccc2c(c1)N(c1ncc(-c3cccc(O)c3)cn1)CC21CC1)N1CC2CC1CN2 (stereo not shown) [Compound 250, (2,5-Diazabicyclo[2.2.1]heptan-2-yl)-[1-[5-(3-hydroxyphenyl)-pyrimidin-2-yl]-spiro[1,2-dihydro-indole-3,1′-cyclopropane]-6-yl]-methanone]
21 | < 0.1 | CC(=O)Oc1cccc(-c2cnc(N3CC4(CC4)c4ccc(C(=O)N(C)CCO)cc43)nc2)c1 [Compound 358, Acetic acid [3-[2-[6-[(2-hydroxy-ethyl)-methyl-carbamoyl]-spiro[1,2-dihydro-indole-3,1′-cyclopropane]-1-yl]-pyrimidin-5-yl]-phenyl]ester]
22 | < 0.1 | CN(CCO)C(=O)c1ccc2c(c1)N(c1ncc(-c3cccc(S(C)(=O)=O)c3)cn1)CC21CC1 [Compound 277, N-(2-Hydroxy-ethyl)-N-methyl-1-[5-(3-methylsulfonyl-phenyl)-pyrimidin-2-yl]-spiro[1,2-dihydro-indole-3,1′-cyclopropane]-6-carboxylic acid amide]
23 | < 0.1 | CCc1cccc(-c2cnc(N3CC4(CC4)c4ccc(C(=O)N(C)CCO)cc43)nc2)c1 [Compound 266, 1-[5-(3-Ethyl-phenyl)-pyrimidin-2-yl]-N-(2-hydroxy-ethyl)-N-methyl-spiro[1,2-dihydro-indole-3,1′-cyclopropane]-6-carboxylic acid amide]
24 | < 0.1 | COc1ccnc(-c2cnc(N3CC4(CC4)c4ccc(C(=O)N5CCNC(=O)C5)cc43)nc2)c1 [Compound 244, 4-[1-[5-(4-Methoxy-pyridin-2-yl)-pyrimidin-2-yl]-spiro[1,2-dihydro-indole-3,1′-cyclopropane]-6-carbonyl]-piperazin-2-one]
25 | < 0.1 | CCc1ccnc(-c2cnc(N3CC4(CC4)c4ccc(C(=O)N5CCCC5)cc43)nc2)c1 [Compound 275, [1-[5-(4-Ethyl-pyridin-2-yl)-pyrimidin-2-yl]-spiro[1,2-dihydro-indole-3,1′-cyclopropane]-6-yl]-pyrrolidin-1-yl-methanone]
26 | < 0.1 | Cc1cccc(-c2cnc(N3CC4(CC4)c4ccc(C(=O)N(C)CCO)cc43)nc2)n1 [Compound 234, N-(4-Hydroxy-ethyl)-N-methyl-1-[5-(6-methyl-pyridin-2-yl)-pyrimidin-2-yl]-spiro[1,2-dihydro-indole-3,1′-cyclopropane]-6-carboxylic acid amide]
27 | < 0.1 | O=C(c1ccc2c(c1)N(c1ncc(-c3ccccc3F)cn1)CC21CC1)N1CCC[C@@H](CO)C1 [Compound 313, [1-[5-(2-Fluorophenyl)-pyrimidin-2-yl]-spiro[1,2-dihydro-indole-3,1′-cyclopropane]-6-yl]-[(3R)-3-(hydroxymethyl)-piperidin-1-l]-methanone]
28 | < 0.1 | CCOc1ccnc(-c2cnc(N3CC4(CC4)c4ccc(C(=O)N(C)CCO)cc43)nc2)c1 [Compound 257, 1-[5-(4-Ethoxy-pyridin-2-yl)-pyrimidin-2-yl]-N-(2-hydroxy-ethyl)-N-methyl-spiro[1,2-dihydro-indole-3,1′-cyclopropane]-6-carboxylic acid amide]
